One assay deals with T1, Raf-1 (c-Raf) (Homo sapiens, UniProt P04049).
T1 construct: Sf9 insect cell lysate containing full length 6his-tagged recombinant human c-Raf; 6his; host or cells: c-Raf: Sf9 insect cell lysate; MEK1 and MAPK: E. coli
Nature of the assay: Raf-1 kinase cascade assay. In kind it is biochemical. As for the experimental part: (Specific Activity: ∼200U/ml). Human Non-active Mek-1-GST and human GST-MAP kinase (recombinant proteins produced in E. coli ). • Stock Solutions c-Raf Assay: • 1. Assay Dilution Buffer (ADB): 20mM MOPS, pH 7.2, 25mM β-glycerol phosphate, 5mM EGTA, 1mM sodium orthovanadate, 1mM dithiothreitol. • 2. Magnesium/ATP Cocktail: 500µM cold ATP and 75 mM magnesium chloride in ADB. • 4. Active Kinase: Human Active c-Raf: Use at 0.4U per assay point. • 5. Non-active GST-MEK1: Use at 0.1µg per assay point. • 6. Non-active GST-p42 MAP Kinase: Use at 1.0 µg per assay point. • Stock Solutions ELISA: • 1. TBST - Tris (50 mM, pH 7.5), NaCl ( 150 mM), Tween-20 (0.05 %) • 2. Superblock (Pierce) • 3. Anti-GST Ab (Pharmacia) • 4. Anti-Phospho MAPK (Sigma) • 5. Anti-Mouse Ab / Europium conjugate (Wallac) • Assay Procedure: • First Stage: c-Raf Dependent Activation of GST-MEK and GST-MAPK • 1. Add […] of ADB per assay (i.e. per well of a 96 well plate) • 2. Add 10 ml of 0.5 mM cold ATP and 75 mM magnesium chloride in ADB. • 3. Add 2 ml of c-Raf (0.4U/assay), in conjunction with 1.6ml non-active MEK1 ([…]). • 4. Add 4 ml of non-active GST-p42 MAP Kinase ([…]). • 5. Incubate for 60 minutes at 30°C in a shaking incubator. • 6. Transfer this mixture to an anti-GST Ab coated 96 well plate (Nunc Immunosorb plates coated o/n with a-GST, then blocked with Pierce Superblock). • 7. Incubate for 60 minutes at 30°C in a shaking incubator • 8. Wash 3X with TBST, add Anti-Phospho MAPK (Sigma) (1:3000) • 9. Incubate for 60 minutes at 30°C in a shaking incubator • 10. Wash 3X with TBST, add Anti-Mouse Ab / Europium conjugate (Wallac) (1:500) • 11. Incubate for 60 minutes at 30°C in a shaking incubator • 12. Wash 3X with TBST, Read plates in Wallac Victor model Plate Reader. • 13. Collect data analyze in Excel for single point and IC50 determinations.
Typically Raf-1 assay is run at compound concentrations from 10 µM to 30 nM in half log dilutions. (% inhibition is determined for each compound concentration).

The target of another assay is T2, c-Met (Homo sapiens, UniProt P08581).
T2 construct: The cytoplasmic domain of c-Met was generated by reverse transcriptase-polymerase chain reaction; His tag (from pFastBac-HTc vector; purified on Ni-NTA/Talon); made in house; host or cells: Sf9 insect cells (baculovirus)
T2 sequence (P08581 956-1390 limits assumed): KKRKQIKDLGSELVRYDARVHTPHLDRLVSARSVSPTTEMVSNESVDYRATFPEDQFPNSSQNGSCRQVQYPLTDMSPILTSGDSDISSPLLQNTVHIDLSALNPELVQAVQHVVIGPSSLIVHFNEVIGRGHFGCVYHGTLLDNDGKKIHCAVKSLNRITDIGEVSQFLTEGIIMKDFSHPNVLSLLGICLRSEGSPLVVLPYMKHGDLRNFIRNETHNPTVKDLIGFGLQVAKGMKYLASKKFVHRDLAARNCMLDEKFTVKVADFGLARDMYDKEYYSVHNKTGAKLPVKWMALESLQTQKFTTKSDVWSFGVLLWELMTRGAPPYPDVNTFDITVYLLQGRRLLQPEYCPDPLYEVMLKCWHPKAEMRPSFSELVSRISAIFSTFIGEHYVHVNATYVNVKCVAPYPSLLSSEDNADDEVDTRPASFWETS
Put plainly: DELFIA assay for c-Met receptor kinase inhibitors. It is filed as biochemical. As for the experimental part:
The c-Met kinase assay was performed as a DELFIA (dissociation enchanced lanthanide fluorometric immunoassay), an ELISA-like protocol based upon time-resolved fluorometry as described previously [Braunwalder, A. F., Yarwood, D.R., Sills, M.A., and Lipson, K.E., Anal. Biochem. 238, 159-164 (1996)]. The protocol was adopted for the screening of inhibitors of the kinase activity of recombinant c-Met. [Loganzo, F., and. Hardy, C., American Biotechnology Laboratory 16(13), 26-28 (1998)]. The cytoplasmic domain of c-Met was generated by reverse transcriptase-polymerase chain reaction using RNA isolated from human mammary epithelial cells as template, cloned into the pFastBac-HTc vector (Life Technologies) and protein expressed in Sf9 insect cells by baculovirus infection. Protein was purified by imidazole elution from Ni-NTA resin (Invitrogen, Carlsbad, CA) or Talon resin (Clontech, Palo Alto, CA). Various conditions were evaluated for the kinase screening protocol and screening was accomplished with the following method. Polystyrene Maxisorp plates (Nunc) were pre-coated for 1 hour to overnight at room temperature with 5 µg/ml poly(Glu4-Tyr) diluted in Tris-buffered saline (TBS). Plates were washed 3X with TBS. c-Met protein preparation was diluted 1:80 into 0.1% BSA/ 4 mM HEPES. A master mix was prepared consisting of: 1 volume of diluted c-Met, 1 volume of 5X buffer (20 mM HEPES, pH 7.4; 2 mM MnCl2; 100 µM Na3VO4; 1 mM DTT), 0.9 volume of water. Master mix (29 µl) was added to the wells of peptide-coated microtiter plates. For assays where c-Met autophosphorylation was evaluated, plates were uncoated and c-Met was diluted into 4 mM HEPES at 1:40 without BSA. Compounds (1 µl) at various dilutions (1 mM to 0.1 µM) prepared in DMSO were added and mixed well with an automatic piptettor. After incubation 20 minutes at room temperature, the reaction was initiated with 20 µl of 62.5 µM ATP/ 50 mM MgCl2 (final 25 µM ATP/ 20 mM MgCl2 in assay). Reactions were incubated 45 minutes at room temperature. Plates were then washed 3X with 100 µl each of DELFIA wash buffer (Wallac). Antibody binding was performed by adding 75 µl of Europium-conjugated anti-phosphotyrosine diluted 1:2000 in Assay Buffer (Wallac) for 1 hour at room temperature. Plates were washed 3X with DELFIA wash buffer. Detection was done by addition of 100 µl of Enhancement Solution (Wallac). After 30 minutes, plates were read in a Wallac VICTOR-2 time-resolved fluorometer. Inhibition data was reported as europium counts for compound treated wells normalized to control counts. IC50 values were obtained by using log doses of compound and calculated using Data Analysis Toolbox software, version 1.0.2 (MDL Information Systems, Inc.).

T1 sequence (P04049 whole entry): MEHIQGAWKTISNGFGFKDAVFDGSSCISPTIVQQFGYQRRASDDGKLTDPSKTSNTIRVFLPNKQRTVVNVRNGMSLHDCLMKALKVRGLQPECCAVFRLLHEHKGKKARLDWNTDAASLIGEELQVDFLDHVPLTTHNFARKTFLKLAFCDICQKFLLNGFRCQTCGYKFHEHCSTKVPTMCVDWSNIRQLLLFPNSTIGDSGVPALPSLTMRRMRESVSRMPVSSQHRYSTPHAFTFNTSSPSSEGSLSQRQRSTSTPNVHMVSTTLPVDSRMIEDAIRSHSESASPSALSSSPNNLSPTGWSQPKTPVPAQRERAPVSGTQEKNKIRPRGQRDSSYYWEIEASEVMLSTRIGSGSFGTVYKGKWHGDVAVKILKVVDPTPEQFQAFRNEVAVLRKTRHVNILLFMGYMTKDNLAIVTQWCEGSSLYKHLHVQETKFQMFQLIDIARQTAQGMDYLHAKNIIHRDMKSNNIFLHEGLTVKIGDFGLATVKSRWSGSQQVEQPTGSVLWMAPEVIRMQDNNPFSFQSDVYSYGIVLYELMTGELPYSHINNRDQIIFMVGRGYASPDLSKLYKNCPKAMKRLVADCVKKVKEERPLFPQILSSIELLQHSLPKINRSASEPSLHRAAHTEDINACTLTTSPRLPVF

A word on the inhibition: it is the drop in the measured response relative to a control, in per cent. Take `N#Cc1cnc2cc3c(cc2c1Nc1ccc(F)c(Cl)c1)NCCO3` [Example 7, 9-(3-Chloro-4-fluoroanilino)-2,3-dihydro-1H-[1,4]oxazino[3,2-g]quinoline-8-carbonitrile]: the inhibition at 0.03 µg/mL against Raf-1 (c-Raf) (dose 0.03 µg/mL) was -5%. The inhibition at 0.1 µg/mL at Raf-1 (c-Raf) (dose 0.1 µg/mL) worked out at 2%. At Raf-1 (c-Raf) (dose 0.3 µg/mL), the inhibition at 0.3 µg/mL is 8%. Moreover, at Raf-1 (c-Raf) (dose 1.0 µg/mL), the inhibition at 1 µg/mL was determined as 16%. On Raf-1 (c-Raf) (dose 3.0 µg/mL), the inhibition at 3 µg/mL was found to be 68%. Besides, the inhibition at 10 µg/mL against Raf-1 (c-Raf) (dose 10.0 µg/mL) worked out at 90%; on c-Met, 80%.

(Values after patent EP1268487B1, “TRICYCLIC PROTEIN KINASE INHIBITORS” (Wyeth, priority 2000, dated 2001).)
